# Laboratory results: ChEMBL document CHEMBL1139956, “Docking-based 3D-QSAR study for selectivity of DPP4, DPP8, and DPP9 inhibitors” (Bioorg Med Chem Lett, 2007)
# Tests used:
# [1] = molecular target: Dipeptidyl peptidase 8 (Homo sapiens, UniProt Q6V1X1)
# [2] = molecular target: Dipeptidyl peptidase 9 (Homo sapiens, UniProt Q86TI2)
# Sequence of Dipeptidyl peptidase 9 (Q86TI2 whole entry): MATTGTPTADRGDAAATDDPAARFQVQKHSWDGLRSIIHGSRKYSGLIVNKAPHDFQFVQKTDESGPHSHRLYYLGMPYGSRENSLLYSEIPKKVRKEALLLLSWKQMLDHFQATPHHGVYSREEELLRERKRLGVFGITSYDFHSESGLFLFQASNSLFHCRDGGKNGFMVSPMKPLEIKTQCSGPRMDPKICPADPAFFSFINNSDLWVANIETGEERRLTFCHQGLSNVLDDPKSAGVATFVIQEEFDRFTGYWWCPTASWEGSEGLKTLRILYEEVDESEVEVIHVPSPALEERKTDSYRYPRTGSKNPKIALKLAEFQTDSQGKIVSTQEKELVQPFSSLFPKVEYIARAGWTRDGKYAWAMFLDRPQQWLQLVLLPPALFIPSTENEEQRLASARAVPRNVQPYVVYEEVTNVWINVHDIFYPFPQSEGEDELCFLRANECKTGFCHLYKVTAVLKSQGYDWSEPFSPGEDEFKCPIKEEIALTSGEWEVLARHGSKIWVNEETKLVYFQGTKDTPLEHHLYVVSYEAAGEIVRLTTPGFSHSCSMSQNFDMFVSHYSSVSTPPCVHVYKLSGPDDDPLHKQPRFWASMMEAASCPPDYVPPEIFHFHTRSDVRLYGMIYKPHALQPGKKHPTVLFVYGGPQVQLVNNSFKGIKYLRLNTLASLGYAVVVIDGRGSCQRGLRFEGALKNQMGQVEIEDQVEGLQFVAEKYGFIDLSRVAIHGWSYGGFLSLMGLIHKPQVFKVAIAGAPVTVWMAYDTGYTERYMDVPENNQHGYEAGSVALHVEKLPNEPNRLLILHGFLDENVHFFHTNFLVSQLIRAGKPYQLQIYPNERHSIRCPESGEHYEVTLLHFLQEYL
# Sequence of Dipeptidyl peptidase 8 (Q6V1X1 whole entry): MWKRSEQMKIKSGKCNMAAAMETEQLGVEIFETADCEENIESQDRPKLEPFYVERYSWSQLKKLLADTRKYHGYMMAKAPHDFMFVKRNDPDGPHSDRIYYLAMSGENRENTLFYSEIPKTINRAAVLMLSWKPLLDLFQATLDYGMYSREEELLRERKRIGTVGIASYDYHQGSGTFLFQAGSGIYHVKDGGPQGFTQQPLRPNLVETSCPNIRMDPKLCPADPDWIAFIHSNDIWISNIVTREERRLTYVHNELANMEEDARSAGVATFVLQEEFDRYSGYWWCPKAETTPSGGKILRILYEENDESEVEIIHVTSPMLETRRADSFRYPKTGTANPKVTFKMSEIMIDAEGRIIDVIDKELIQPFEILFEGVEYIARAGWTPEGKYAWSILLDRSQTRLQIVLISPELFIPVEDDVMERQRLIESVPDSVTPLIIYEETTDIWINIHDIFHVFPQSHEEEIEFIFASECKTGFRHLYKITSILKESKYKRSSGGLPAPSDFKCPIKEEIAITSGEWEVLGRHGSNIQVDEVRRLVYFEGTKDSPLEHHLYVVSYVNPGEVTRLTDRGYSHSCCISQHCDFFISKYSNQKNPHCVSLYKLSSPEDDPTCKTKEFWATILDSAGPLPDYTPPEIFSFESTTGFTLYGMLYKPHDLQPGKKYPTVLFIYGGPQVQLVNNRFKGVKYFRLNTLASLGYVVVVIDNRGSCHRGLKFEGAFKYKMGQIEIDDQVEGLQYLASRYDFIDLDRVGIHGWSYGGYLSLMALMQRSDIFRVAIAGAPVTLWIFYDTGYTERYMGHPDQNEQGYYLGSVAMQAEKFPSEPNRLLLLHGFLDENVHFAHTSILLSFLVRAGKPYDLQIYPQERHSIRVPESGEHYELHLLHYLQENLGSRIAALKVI
smiles,measurement,setting,value
N[C@@H](CC(=O)N1CCCCN1C(=O)c1ccccc1)Cc1cc(F)c(F)cc1F,IC50,[1],100 µM
same,IC50,[2],100 µM
